Measured values taken from EP4737442A1, “DIAMINOVINYLIDENE DERIVATIVE OR SALT THEREOF, PEST CONTROL AGENT CONTAINING SAID COMPOUND, AND METHODS FOR USING THESE” (ADEKA CORPORATION, priority 2023, dated 2025).

Tests used:
Dirofilaria immitis = assay: Effect test on Dirofilaria immitis (larval motility inhibition); settings: 168 h, read-out: motility inhibition rate
Plutella xylostella = assay: Insecticidal test against Plutella xylostella; settings: in Brassica rapa, 144 h, read-out: corrected mortality (%), assessment
Text: Six days after the immersion in the drug solution, the number of surviving insects was examined.

| SMILES | inhibition at 100 µM (Dirofilaria immitis) [%] | mortality at 500 µg/mL (Plutella xylostella) [%] |
| --- | --- | --- |
| CNC(Nc1ccc(F)cc1)=C1C(=O)CC(c2ccc(Br)cn2)CC1=O (centres unmarked) [1-10] | ≥ 50 | 100 |
| CNC(Nc1ccc(F)cc1)=C1C(=O)CN(c2ccccc2)N(c2ccccc2)C1=O [6-35] | ≥ 50 |  |
| CNC(Nc1ccc(F)nc1)=C1C(=O)CC(c2ccc(C(F)(F)F)cc2)C(c2ccccn2)C1=O (centres unmarked) [1-70] | ≥ 50 |  |
| O=C1CC(c2cnc(Cl)c(Br)c2)NC(=O)C1=C(Nc1ccc(F)cc1)Nc1ccc(F)nc1 (centres unmarked) [3-43] | ≥ 50 |  |
| O=C1CC(c2ccc(C(F)(F)F)cc2)C(c2ccccn2)C(=O)C1=C(Nc1ccc(F)cc1)Nc1ccc(F)nc1 (centres unmarked) [1-73] | ≥ 50 |  |
| CSC(Nc1ccc(F)nc1)=C1C(=O)CCN(c2ccc(C(F)(F)F)cc2)C1=O [9-34] | ≥ 50 |  |
| O=C1CC(c2ccc(C(F)(F)F)cc2)CC(=O)C1=C(Nc1ccnc(F)c1)Nc1ccnc(F)c1 (centres unmarked) [1-4] | ≥ 50 |  |
| CCOC(=O)N1C(=O)C(=C(NCc2cccc(F)c2)Nc2cccc(F)c2)C(=O)CN1c1ccc(C#N)c(Cl)c1 [6-31] | ≥ 50 |  |
| CNC(Nc1ccn(C)n1)=C1C(=O)CC(c2ccc(C(F)(F)F)cc2)CC1=O (centres unmarked) [1-117] | ≥ 50 |  |
| CC1(C)C(=O)C(=C(Nc2ccc(F)nc2)Nc2ccc(F)nc2)C(=O)CC1c1ccc(Br)cn1 (centres unmarked) [1-46] | ≥ 50 |  |
| O=C1CC(c2ccc(Cl)s2)CC(=O)C1=C(Nc1ccc(F)cn1)Nc1ccc(F)cn1 (centres unmarked) [1-2] | ≥ 50 |  |
| O=C1CC(c2ccc(C(F)(F)F)cc2)CC(=O)C1=C(NCc1ccccn1)Nc1ccc(F)cc1 (centres unmarked) [1-19] | ≥ 50 |  |
| O=C1CC(c2ccc(C(F)(F)F)cc2)CC(=O)C1=C(NCc1ccc(F)cc1)Nc1ccc(F)cc1 (centres unmarked) [1-34] | ≥ 50 |  |
| CCC1(c2ccc(C(F)(F)F)nc2)CN(C)C(=O)C(=C(Nc2ccc(F)nc2)SC)C1=O (centres unmarked) [9-37] | ≥ 50 |  |
| O=C1CCC(CC(F)(F)F)C(=O)C1=C(Nc1ccc(F)cc1)Nc1ccc(F)nc1 (centres unmarked) [1-54] | ≥ 50 |  |
| CC1(C)C(=O)C(=C(Nc2ccnc(F)c2)Nc2ccnc(F)c2)C(=O)CC1c1ccc(Br)cn1 (centres unmarked) [1-47] | ≥ 50 |  |
| O=C1CC(c2ccc(Br)cn2)CC(=O)C1=C(Nc1ccc(F)nc1)Nc1ccc(F)nc1 (centres unmarked) [1-6] | ≥ 50 |  |
| CC1(C)C(=O)C(=C(Nc2ccc(F)cc2)Nc2ccc(F)cc2)C(=O)CC1c1ccc(Br)cn1 (centres unmarked) [1-44] | ≥ 50 | 100 |
| Cn1nc(-c2ccccc2)c(C2CC(=O)C(=C(Nc3ccc(F)cc3)Nc3ccc(F)cc3)C(=O)C2)c1Cl (centres unmarked) [1-80] | ≥ 50 |  |
| COCCNC(Nc1ccc(F)cc1)=C1C(=O)CC(c2ccc(C(F)(F)F)cc2)CC1=O (centres unmarked) [1-25] | ≥ 50 |  |
| O=C1CC(c2ccc(C(F)(F)F)cc2)CC(=O)C1=C(NCc1ccc(OC(F)(F)F)cc1)Nc1ccc(F)cc1 (centres unmarked) [1-14] | ≥ 50 |  |
| O=C1CC(c2nc(-c3ccc(F)cc3)cs2)NC(=O)C1=C(Nc1ccc(F)nc1)Nc1ccc(F)nc1 (centres unmarked) [3-25] | ≥ 50 | 100 |
| Cn1nc(-c2ccccc2)c(C2CC(=O)C(=C(Nc3ccc(F)cc3)Nc3ccc(F)nc3)C(=O)C2)c1Cl (centres unmarked) [1-79] | ≥ 50 |  |
| O=C1CC(c2ccc(C(F)(F)F)cc2)CC(=O)C1=C(Nc1ccc(F)cn1)Nc1ccc(F)cn1 (centres unmarked) [1-1] | ≥ 50 | 100 |

| SMILES | inhibition at 100 µM (Dirofilaria immitis) [%] | mortality at 500 µg/mL (Plutella xylostella) [%] |
| --- | --- | --- |
| CCCNC(Nc1ccc(F)cc1)=C1C(=O)CN(c2ccc(C#N)cn2)CC1=O [4-3] | ≥ 50 | 100 |
| CNC(Nc1ccc(F)cc1)=C1C(=O)CN(c2ccc(C#N)cn2)CC1=O [compound No. 4-1] | ≥ 50 | 100 |
| O=C1CC(c2ccc(C(F)(F)F)cc2)CC(=O)C1=C(Nc1ccc(F)nc1)Nc1cccnn1 (centres unmarked) [1-116] | ≥ 50 | 100 |
| O=C1CC(c2ccc(C(F)(F)F)nc2)OC(=O)C1=C(Nc1ccnc(F)c1)Nc1ccnc(F)c1 (centres unmarked) [2-1] | ≥ 50 |  |
| CNC(Nc1ccc(F)cc1)=C1C(=O)CCCN(c2ccc(C(F)(F)F)cc2)C1=O [5-2] | ≥ 50 |  |
| CNC(NC)=C1C(=O)CC(c2ccco2)CC1=O (centres unmarked) [1-11] | ≥ 50 |  |
| CC(C)(C)OC(=O)C1CC(=O)C(=C(Nc2ccc(F)cc2)Nc2ccc(F)nc2)C(=O)N1 (centres unmarked) [3-39] | ≥ 50 | 100 |
| O=C1CC(c2ccc(C(F)(F)F)nc2)CC(=O)C1=C(Nc1ccc(F)nc1)Nc1ccc(F)nc1 (centres unmarked) [1-8] | ≥ 50 |  |
| CC1(C)C(=O)C(=C(Nc2ccc(F)cn2)Nc2ccc(F)cn2)C(=O)CC1c1ccc(Br)cn1 (centres unmarked) [1-45] | ≥ 50 | 100 |
| CCC1(c2ccc(C(F)(F)F)cc2)CN(C)C(=O)C(=C(Nc2ccc(F)nc2)Nc2ccc(F)nc2)C1=O (centres unmarked) [3-10] | ≥ 50 |  |
| O=C1CC(c2nc(-c3ccc(F)cc3)cs2)NC(=O)C1=C(Nc1ccc(F)cc1)Nc1ccc(F)nc1 (centres unmarked) [3-24] | ≥ 50 | 100 |
| O=C1CC(c2ccc(C(F)(F)F)nc2)OC(=O)C1=C(Nc1ccc(F)nc1)Nc1ccc(F)nc1 (centres unmarked) [2-3] | ≥ 50 |  |
| CNC(Nc1ccc(F)cc1)=C1C(=O)CC(c2c(-c3ccccc3)nn(C)c2Cl)CC1=O (centres unmarked) [1-82] | ≥ 50 |  |
| O=C1CC(c2ccc(Cl)s2)CC(=O)C1=C(Nc1ccc(F)nc1)Nc1ccc(F)nc1 (centres unmarked) [1-49] | ≥ 50 |  |
| COc1ncccc1NC(Nc1cccnc1OC)=C1C(=O)CC(c2ccc(C(F)(F)F)cc2)CC1=O (centres unmarked) [1-118] | ≥ 50 |  |
| CSC(Nc1ccc(F)nc1)=C1C(=O)CC(c2ccc(Br)s2)NC1=O (centres unmarked) [9-33] | ≥ 50 |  |
| O=C1CC(c2ccc(C(F)(F)F)cc2)CC(=O)C1=C(Nc1ccc(F)cc1)NC1CCOc2ccccc21 (centres unmarked) [1-69] | ≥ 50 |  |
| CNC(Nc1ccc(F)cc1)=C1C(=O)CC(c2ccc(C(F)(F)F)cc2)CC1=O (centres unmarked) [1-57] | ≥ 50 |  |
| O=C1CC(c2ccc(C(F)(F)F)nc2)OC(=O)C1=C(Nc1ccc(F)cn1)Nc1ccc(F)cn1 (centres unmarked) [2-2] | ≥ 50 |  |
| O=C1CC(c2ccc(C(F)(F)F)cc2)CC(=O)C1=C(Nc1ccc(F)cc1)Nc1cnccn1 (centres unmarked) [1-64] | ≥ 50 |  |
| O=C1CC(c2ccc(C(F)(F)F)cc2)CC(=O)C1=C(NCC(F)(F)F)NCC(F)(F)F (centres unmarked) [1-28] | ≥ 50 | 100 |
| CC(C)(C)ONC(Nc1ccc(F)cc1)=C1C(=O)CC(c2ccc(C(F)(F)F)cc2)CC1=O (centres unmarked) [1-38] | ≥ 50 | 100 |
| CNC(Nc1ccc(F)cc1)=C1C(=O)CC(c2ccc(C(F)(F)F)cc2)N(C)C1=O (centres unmarked) [compound No. 3-1, 3-(((4-fluorophenyl)amino) (methylamino)methylene)-1-methyl-6-(4-(trifluoromethyl)phenyl)piperidine-2,4-dione] | ≥ 50 |  |
| O=C1CC(c2ccc(C(F)(F)F)cc2)CC(=O)C1=C(Nc1ccc(F)cc1)Nc1ccc(F)cc1 (centres unmarked) [compound No. 1-9, 2-(bis((4-fluorophenyl)amino)methylene)-5-(4-(trifluoromethyl)phenyl)cyclohexane-1,3-dione] | ≥ 50 |  |

| SMILES | inhibition at 100 µM (Dirofilaria immitis) [%] | mortality at 500 µg/mL (Plutella xylostella) [%] |
| --- | --- | --- |
| C=CCNC(Nc1ccc(F)cc1)=C1C(=O)CC(c2cnc(C)o2)CC1=O (centres unmarked) [1-115] | ≥ 50 | 100 |
| CCC1(c2ccc(C(F)(F)F)cc2)CN(C)C(=O)C(=C(NC)Nc2ccc(F)nc2)C1=O (centres unmarked) [3-8] | ≥ 50 |  |
| CNC(Nc1ccc(F)cc1)=C1C(=O)CN(c2ccc(C#N)nc2)N(Cc2ccccc2)C1=O [6-27] | ≥ 50 |  |
| CSC(Nc1ccc(F)nc1)=C1C(=O)CC(c2ccc(C(F)(F)F)cc2)CC1=O (centres unmarked) [compound No. 9-1] | ≥ 50 | 100 |
| O=C1CC(c2ccc(C(F)(F)F)cc2)C(c2ccncc2)C(=O)C1=C(Nc1ccc(F)nc1)Nc1ccc(F)nc1 (centres unmarked) [1-72] | ≥ 50 |  |
| CNC(Nc1ccc(F)nc1)=C1C(=O)CC(c2cc(OC(F)F)n(C)n2)NC1=O (centres unmarked) [3-20] | ≥ 50 |  |
| O=C1CC(c2ccc(Br)cn2)CC(=O)C1=C(Nc1ccc(F)cn1)Nc1ccc(F)cn1 (centres unmarked) [1-5] | ≥ 50 |  |
| O=C1CC(c2ccc(C(F)(F)F)cc2)CC(=O)C1=C(NCCBr)Nc1ccc(F)cc1 (centres unmarked) [1-27] | ≥ 50 |  |
| O=C1CC(c2ccc(Br)cn2)CC(=O)C1=C(Nc1ccnc(F)c1)Nc1ccnc(F)c1 (centres unmarked) [1-7] | ≥ 50 |  |
| O=C1CC(c2ccc(C(F)(F)F)cc2)CC(=O)C1=C(Nc1ccc(F)nc1)Nc1ccc(F)nc1 (centres unmarked) [1-3] | ≥ 50 |  |
| CNC(Nc1ccc(F)cc1)=C1C(=O)CN(c2cnc(C#N)c(Cl)c2)N(C)C1=O [6-44] | ≥ 50 |  |
| CCC1(c2ccc3ccccc3n2)CN(C)C(=O)C(=C(Nc2ccc(F)nc2)SC)C1=O (centres unmarked) [9-38] | ≥ 50 |  |
| CN(C)CCNC(NCCN(C)C)=C1C(=O)CC(c2ccc(C(F)(F)F)cc2)CC1=O (centres unmarked) [1-42] | ≥ 50 |  |
| CCC1(c2ccc(C(F)(F)F)cc2)CN(C)C(=O)C(=C(Nc2ccc(F)cc2)Nc2ccc(F)nc2)C1=O (centres unmarked) [3-9] | ≥ 50 |  |
| O=C1CC(c2ccc(C(F)(F)F)cc2)CC(=O)C1=C(Nc1ccc(F)cc1)NC1CC1 (centres unmarked) [1-36] | ≥ 50 |  |
| COCCNC(NCCOC)=C1C(=O)CC(c2ccc(C(F)(F)F)cc2)CC1=O (centres unmarked) [1-29] | ≥ 50 |  |
| CCOC(=O)N1C(=O)C(=C(NC)Nc2ccc(F)c(F)c2)C(=O)CN1c1ccc(C#N)c(F)c1 [6-29] | ≥ 50 |  |
| Cc1cc(NC(Nc2ccc(F)cc2)=C2C(=O)CC(c3ccc(C(F)(F)F)cc3)CC2=O)no1 (centres unmarked) [1-15] | ≥ 50 |  |
| O=C1CCC(CC(F)(F)F)C(=O)C1=C(Nc1ccc(F)nc1)Nc1ccc(F)nc1 (centres unmarked) [1-52] | ≥ 50 |  |
| O=C1CC(c2ccc(C(F)(F)F)cc2)CC(=O)C1=C(NCC(F)(F)F)Nc1ccc(F)cc1 (centres unmarked) [1-23] | ≥ 50 | 100 |
| CCC1(c2ccc(C(F)(F)F)nc2)CN(C)C(=O)C(=C(NC)Nc2ccc(F)cc2)C1=O (centres unmarked) [compound No. 3-2] | ≥ 50 |  |
| CNC(Nc1ccc(F)nc1)=C1C(=O)CC(c2ccc(C(F)(F)F)cc2)CC1=O (centres unmarked) [1-56] | ≥ 50 |  |
| CNC(Nc1ccc(F)cc1)=C1C(=O)CN(c2cnc(C#N)c(OC)c2)N(C(=O)OC)C1=O [6-21] | ≥ 50 |  |
